Source: publication PMC10126811, “The dinitrobenzamide mustard prodrugs, PR-104A and SN27686, for use in a novel MNDEPT cancer prodrug therapy approach” (Bioscience Reports, 2023)
Read-outs that look alike come from different tables or passages of the source.

How the values were obtained:
NfnB-cys = biological target: T1, NfnB-cys (Escherichia coli, UniProt P38489); test: prodrug consumption at […] nm, microplate, Michaelis-Menten fit; assay type: biochemical; conditions: read-out: Km μM, NADH 4 mM, 50 mM phosphate pH 7.2, 37 °C, 5% v/v DMSO, prodrug 0.1-20 mM
T1 construct: gene nfsB; pET28a+ His-tag plus tag of 6 N-terminal cysteines, tags kept; E. coli Rosetta pLysS; FMN-loaded; approx. 28 kDa monomer on SDS-PAGE; free enzyme

YfkO-cys = tested on: T2, YfkO-cys; test: as above; assay type: biochemical, Bacillus licheniformis; conditions: NADH 4 mM, 50 mM phosphate pH 7.2, 37 °C, 5% v/v DMSO, prodrug 0.1-20 mM
T2 construct: pET28a+ His-tag plus tag of 6 N-terminal cysteines, tags kept; E. coli Rosetta pLysS; FMN-loaded; approx. 30 kDa monomer on SDS-PAGE; free enzyme

T1 sequence (P38489 whole entry): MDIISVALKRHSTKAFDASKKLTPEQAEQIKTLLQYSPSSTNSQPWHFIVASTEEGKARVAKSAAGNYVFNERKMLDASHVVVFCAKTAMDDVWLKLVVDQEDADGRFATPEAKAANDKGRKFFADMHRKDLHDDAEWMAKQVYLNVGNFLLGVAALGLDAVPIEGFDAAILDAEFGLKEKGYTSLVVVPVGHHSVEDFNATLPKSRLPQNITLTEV

CS(=O)(=O)OCCN(CCBr)c1c(C(=O)NCCO)cc([N+](=O)[O-])cc1[N+](=O)[O-] [PR-104A, 2-[N-(2-bromoethyl)-2-(2-hydroxyethylcarbamoyl)-4,6-dinitroanilino]ethylmethanesulfonate]
Km (NfnB-cys; text b40 prints 3172 μM): 3100 ± 400 µM
Km (YfkO-cys; text b40 prints 1935 μM): 1900 ± 350 µM

O=C(NCCO)c1cc([N+](=O)[O-])cc([N+](=O)[O-])c1N(CCBr)CCBr [SN27686]
Km (NfnB-cys; text b40 prints 257 μM): 250 ± 80 µM
Km (YfkO-cys): 420 ± 120 µM
